Measurements: PubChem BioAssay (NCI)
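Briefly, cells in 96-well plates were exposed to five compound concentrations for 48 h, and endpoints were estimated by linear interpolation. TGI denotes the concentration required for complete inhibition of growth.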

Legend:
Experiment in all cases: NCI anticancer screen, dose series, 48 h
OVCAR-3 ovarian = tested on: OVCAR-3 ovarian
A549 NSCLC = tested on: A549 NSCLC
SNB-19 CNS = tested on: SNB-19 CNS
UACC-257 melanoma = tested on: UACC-257 melanoma
UO-31 renal = tested on: UO-31 renal
NCI-H226 lung = tested on: NCI-H226 lung
HOP-62 NSCLC = tested on: HOP-62 NSCLC
UACC-62 melanoma = tested on: UACC-62 melanoma
M14 melanoma = tested on: M14 melanoma
SNB-75 CNS = tested on: SNB-75 CNS
HOP-18 NSCLC = tested on: HOP-18 NSCLC
LXFL 529 NSCLC = tested on: LXFL 529 NSCLC
OVCAR-8 ovarian = tested on: OVCAR-8 ovarian
IGROV1 ovarian = tested on: IGROV1 ovarian
EKVX NSCLC = tested on: EKVX NSCLC
HT29 colon = tested on: HT29 colon
RXF 393 renal = tested on: RXF 393 renal
OVCAR-5 ovarian = tested on: OVCAR-5 ovarian
SF-295 CNS = tested on: SF-295 CNS
SK-OV-3 ovarian = tested on: SK-OV-3 ovarian
ACHN renal = tested on: ACHN renal
HOP-92 NSCLC = tested on: HOP-92 NSCLC
MALME-3M melanoma = tested on: MALME-3M melanoma
U251 CNS = tested on: U251 CNS
NCI-H23 lung = tested on: NCI-H23 lung
NCI-H460 lung = tested on: NCI-H460 lung
DLD-1 colon = tested on: DLD-1 colon
SK-MEL-28 melanoma = tested on: SK-MEL-28 melanoma
SF-539 CNS = tested on: SF-539 CNS
M19-MEL melanoma = tested on: M19-MEL melanoma
KM20L2 colon = tested on: KM20L2 colon
786-0 renal = tested on: 786-0 renal
SN12C renal = tested on: SN12C renal
KM12 colon = tested on: KM12 colon
HCT-15 colon = tested on: HCT-15 colon
HCC-2998 colon = tested on: HCC-2998 colon
DMS 273 small cell lung = tested on: DMS 273 small cell lung
SW-620 colon = tested on: SW-620 colon
HCT-116 colon = tested on: HCT-116 colon
CAKI-1 renal = tested on: CAKI-1 renal
SNB-78 CNS = tested on: SNB-78 CNS
SF-268 CNS = tested on: SF-268 CNS
DMS 114 small cell lung = tested on: DMS 114 small cell lung
SK-MEL-2 melanoma = tested on: SK-MEL-2 melanoma
A498 renal = tested on: A498 renal
OVCAR-4 ovarian = tested on: OVCAR-4 ovarian
RPMI-8226 leukemia = tested on: RPMI-8226 leukemia
COLO 205 colon = tested on: COLO 205 colon
TK-10 renal = tested on: TK-10 renal
NCI-H522 lung = tested on: NCI-H522 lung
K-562 leukemia = tested on: K-562 leukemia
SK-MEL-5 melanoma = tested on: SK-MEL-5 melanoma
SR leukemia = tested on: SR leukemia
MOLT-4 leukemia = tested on: MOLT-4 leukemia
CCRF-CEM leukemia = tested on: CCRF-CEM leukemia

Measured: TGI

Cc1ccc(NC(=O)OCC(COc2ccc(Cl)cc2Cl)OC(=O)Nc2ccc(C)cc2)cc1 (centres undefined)
39.3 µM: OVCAR-8 ovarian
68.2 µM: SNB-75 CNS
not listed: TK-10 renal | NCI-H522 lung | K-562 leukemia | SK-MEL-5 melanoma | SR leukemia | MOLT-4 leukemia | CCRF-CEM leukemia
> 100 µM: all other assays above

CC1C2CC=CC(=O)[C@@]2(C)CCC12OCCO2 (some centres undefined)
65.4 µM: SK-MEL-5 melanoma
not listed: HOP-18 NSCLC | HCT-15 colon | RPMI-8226 leukemia | COLO 205 colon
> 100 µM: all other assays above
